# Read-outs that look alike come from different tables or passages of the source.
# Assays:
# CRBN-DDB1 = target: T1, CRBN-DDB1 (Homo sapiens, UniProt Q96SW2); assay: CRBN-DDB1 Ligand-Displacement AlphaScreen Assay (thalidomide competition); assay type: binding; conditions: read-out: CRBN alpha IC50;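 further: streptavidin donor and nickel chelate acceptor bead proximity signal after 30 min incubation, normalized with no-protein background as 0% and DMSO wells as 100% activity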
# T1 construct: 6xHis (given for the complex); made in house; host or cells: Sf9 cells (Invitrogen), pFastBac
# 797 = assay: Cell viability, 797 cells (Table 4); assay type: cell-based; conditions: read-out: IC50 (nM) 797
# [1] = target: T2, BRD4 adjoined to nanoluciferase (Nluc) (Homo sapiens, UniProt O60885+Q96SW2); assay: BRD4 Dual Luciferase Assay; assay type: cell-based; conditions: for Emax: BRD4 remaining at Emax, read-out: BRD4− Emax (percent remaining);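 on all read-outs here: transduced reporter cells exposed to compound for 4 h, then Nluc and Fluc luminescence read, each normalized to DMSO controls and expressed as Nluc/Fluc ratio per well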
# T2 construct: expressed in transfected cells
# [2] = 4 hours, read-out: max degradation (dual luc)
# [3] = read-out: BRD4 max degradation(%) Dual Luciferase
compound,measurement,setting,value
"O=C1CCC(N2C(=O)c3ccc(NCc4ccco4)cc3C2=O)C(=O)N1 [Compound D-28, 2-(2,6-dioxopiperidin-3-yl)-5-((furan-2-ylmethyl)amino)isoindoline-1,3-dione]",IC50,CRBN-DDB1,40.1 nM
"CC(C)(C)OC(=O)NCCNc1cccc2c1C(=O)N(C1CCC(=O)NC1=O)C2=O [Compound D-29, tert-butyl (2-((2-(2,6-dioxopiperidin-3-yl)-1,3-dioxoisoindolin-4-yl)amino)ethyl)carbamate]",IC50,CRBN-DDB1,140 nM
"O=C1CCC(N2C(=O)c3ccc(NC(=O)CCl)cc3C2=O)C(=O)N1 [Compound D-32, 2-chloro-N-(2-(2,6-dioxopiperidin-3-yl)-1,3-dioxoisoindolin-5-yl)acetamide]",IC50,CRBN-DDB1,21.4 nM
"O=C1CCC(N2C(=O)c3c(Cl)ccc(Cl)c3C2=O)C(=O)N1 [Compound D-51, 4,7-dichloro-2-(2,6-dioxopiperidin-3-yl)isoindoline-1,3-dione]",IC50,CRBN-DDB1,1170 nM
"C[C@@]1(N2C(=O)c3cccc(O)c3C2=O)CCC(=O)NC1=O [Compound D-52, (R)-4-hydroxy-2-(3-methyl-2,6-dioxopiperidin-3-yl)isoindoline-1,3-dione]",IC50,CRBN-DDB1,39500 nM
"C[C@]1(N2C(=O)c3cccc(O)c3C2=O)CCC(=O)NC1=O [Compound D-53, (S)-4-hydroxy-2-(3-methyl-2,6-dioxopiperidin-3-yl)isoindoline-1,3-dione]",IC50,CRBN-DDB1,56100 nM
"C[C@@]1(N2C(=O)c3cccc(OCC(=O)O)c3C2=O)CCC(=O)NC1=O [Compound D-54, (R)-2-((2-(3-methyl-2,6-dioxopiperidin-3-yl)-1,3-dioxoisoindolin-4-yl)oxy)acetic acid]",IC50,CRBN-DDB1,> 50000 nM
"C[C@]1(N2C(=O)c3cccc(OCC(=O)O)c3C2=O)CCC(=O)NC1=O [Compound D-55, (S)-2-((2-(3-methyl-2,6-dioxopiperidin-3-yl)-1,3-dioxoisoindolin-4-yl)oxy)acetic acid]",IC50,CRBN-DDB1,> 50000 nM
O=C1CCC(N2C(=O)c3cccc([N+](=O)[O-])c3C2=O)C(=O)N1 [Compound D-56],IC50,CRBN-DDB1,3060 nM
O=C1CCC(N2C(=O)c3ccc(Br)cc3C2=O)C(=O)N1 [Compound D-58],IC50,CRBN-DDB1,715 nM
CCOc1cccc2c1C(=O)N(C1CCC(=O)N(CC)C1=O)C2=O [Compound D-59],IC50,CRBN-DDB1,> 50000 nM
CCOc1cccc2c1C(=O)N(C1CCC(=O)NC1=O)C2=O [Compound D-60],IC50,CRBN-DDB1,259 nM
O=C1CCC(N2C(=O)c3ccc([N+](=O)[O-])cc3C2=O)C(=O)N1 [Compound D-61],IC50,CRBN-DDB1,2660 nM
O=C(O)COc1cccc2c1C(=O)N(C1CCC(=O)NC1=O)C2=O [Compound D-64],IC50,CRBN-DDB1,2130 nM
COC(=O)COc1cccc2c1C(=O)N(C1CCC(=O)NC1=O)C2=O [Compound D-65],IC50,CRBN-DDB1,1120 nM
COc1cc(C(=O)NCCCCNC(=O)COc2cccc3c2C(=O)N(C2CCC(=O)NC2=O)C3=O)ccc1Nc1ccc2c(n1)N(C1CCCC1)[C@H](C)C(=O)N2C (stereo partly drawn) [dBET16],IC50,797,4900 nM
Cc1sc2c(c1C)C(c1ccc(Cl)cc1)=N[C@@H](CC(=O)NCCOCCOCCNC(=O)COc1cccc3c1C(=O)N(C1CCC(=O)NC1=O)C3=O)c1nnc(C)n1-2 (stereo partly drawn) [dBET24],Conc@Emax,[1],5 µM
same,Dmax,[1]; [2],50.4%
same,Emax,[1],43%
same,Dmax,[1]; [3],50%
Cc1sc2c(c1C)C(c1ccc(Cl)cc1)=N[C@@H](CC(=O)NCCOCCOc1cccc3c1C(=O)N(C1CCC(=O)NC1=O)C3=O)c1nnc(C)n1-2 (stereo partly drawn) [dBET27],Conc@Emax,[1],0.5 µM
same,Dmax,[1]; [2],30%
same,Emax,[1],67.3%
same,Dmax,[1]; [3],30%
Cc1sc2c(c1C)C(c1ccc(Cl)cc1)=N[C@@H](CC(=O)NCCCCCCOc1cccc3c1C(=O)N(C1CCC(=O)NC1=O)C3=O)c1nnc(C)n1-2 (stereo partly drawn) [dBET29],Conc@Emax,[1],0.05 µM
same,Dmax,[1]; [2],19%
same,Emax,[1],75.5%
same,Dmax,[1]; [3],19%
Cc1c(C(=O)NCCCCCCCCNC(=O)COc2cccc3c2C(=O)N(C2CCC(=O)NC2=O)C3=O)sc2c1C(c1ccc(Cl)cc1)=N[C@@H](CC(=O)NCCCN1CCN(C)CC1)c1nnc(C)n1-2 (stereo partly drawn) [dBET31],Emax,[1],45.6%
Cc1sc2c(c1C)C(c1ccc(Cl)cc1)=N[C@@H](CC(=O)NCCCCNC(=O)Cc1cccc3c1C(=O)N(C1CCC(=O)NC1=O)C3=O)c1nnc(C)n1-2 (stereo partly drawn) [dBET36],IC50,797,725 nM
